Results published in ChEMBL document CHEMBL4483862, “Open-source discovery of chemical leads for next-generation chemoprotective antimalarials” (2018).

Tested on: Plasmodium berghei
Assay: Luciferase/luciferin-expressing antifolate-resistant parasites were used to infect a culture of HepG2 cells that were pre-incubated with compounds. Infected hepatocytes emit light due to the luciferase reaction. Assay results are presented as the percent inhibition of light emission compared to control. […]
Type: functional
Conditions: sporozoite; for IC90: read-out: LUCIFERASE INFECTION ASSAY - IC90

O=C(OC1CCCCC1)c1ccc(NC(=O)C2CCCCC2)cc1
IC50 (PBLUC_HILL_SLOPE 6.21, PBLUC_R_SQUARED 0.113, read-out: LUCIFERASE INFECTION ASSAY - IC50): 9.48 µM
IC90: > 10 µM

Cc1cc(C(C)(C)C)cc(C)c1S(=O)(=O)N1CC(=O)Nc2ccccc21
IC50 (PBLUC_HILL_SLOPE 6.12, PBLUC_R_SQUARED 0.785, read-out: LUCIFERASE INFECTION ASSAY - IC50): 6.84 µM
IC90: > 8.86 µM

CC(C)c1ccc(NC(=O)Nc2nc(C(N)C3CCCCC3)cs2)cc1 (configuration not stated)
IC50 (PBLUC_HILL_SLOPE 7.05, PBLUC_R_SQUARED 0.602, read-out: LUCIFERASE INFECTION ASSAY - IC50): 7.75 µM
IC90: > 8.86 µM

O=C(Nc1ccccc1)N1CCc2sccc2C1c1ccc(C(F)(F)F)cc1 (configuration not stated)
IC50 (PBLUC_HILL_SLOPE 6.19, PBLUC_R_SQUARED 0.577, read-out: LUCIFERASE INFECTION ASSAY - IC50): 4.16 µM
IC90: 5.93 µM

OC1(c2ccc(F)cc2)CS/C(=N\c2cccnc2)N1Cc1ccco1 (configuration not stated)
IC50 (PBLUC_HILL_SLOPE 6.5, PBLUC_R_SQUARED 0.331, read-out: LUCIFERASE INFECTION ASSAY - IC50): 8.78 µM
IC90: > 10 µM

COc1cccc(NC(=O)Nc2nc(-c3cc4ccccc4o3)cs2)c1
IC50 (PBLUC_HILL_SLOPE 6.07, PBLUC_R_SQUARED 0.713, read-out: LUCIFERASE INFECTION ASSAY - IC50): 5.5 µM
IC90: 7.91 µM

O=C(Nc1ccc(OC(F)F)c(Cc2ccccc2)c1)c1ccc(-n2ccnc2)nc1
IC50 (PBLUC_HILL_SLOPE 6.37, PBLUC_R_SQUARED 0.721, read-out: LUCIFERASE INFECTION ASSAY - IC50): 8.94 µM
IC90: > 10 µM

COc1ccc(-n2c(C)cc(/C=C(\C#N)C(=O)NCC(c3cccs3)N3CCOCC3)c2C)cc1 (configuration not stated)
IC50 (PBLUC_HILL_SLOPE 6.75, PBLUC_R_SQUARED 0.0585, read-out: LUCIFERASE INFECTION ASSAY - IC50): > 10 µM
IC90: > 10 µM

COC(=O)c1cc(NC(=O)Nc2cc(Cl)cc(Cl)c2)ccc1N1CCOCC1
IC50 (PBLUC_HILL_SLOPE 7.3, PBLUC_R_SQUARED 0.704, read-out: LUCIFERASE INFECTION ASSAY - IC50): 3.08 µM
IC90: 4.16 µM

COc1ccc(-c2cc([N+](=O)[O-])ccc2OC(C)C(=O)N2CCC(C)CC2)cc1 (configuration not stated)
IC50 (PBLUC_HILL_SLOPE 7.12, PBLUC_R_SQUARED 0.553, read-out: LUCIFERASE INFECTION ASSAY - IC50): 3.11 µM
IC90: 4.24 µM

Cc1ccccc1OCC(O)CN(CC(C)C)CC(C)C (configuration not stated)
IC50 (PBLUC_HILL_SLOPE 6.96, PBLUC_R_SQUARED 0.782, read-out: LUCIFERASE INFECTION ASSAY - IC50): 8.86 µM
IC90: > 10 µM

COc1ccc(-c2cnc3cnc(-c4ccccc4)cn23)cn1
IC50 (PBLUC_HILL_SLOPE 7.01, PBLUC_R_SQUARED 0.635, read-out: LUCIFERASE INFECTION ASSAY - IC50): 9.42 µM
IC90: > 10.9 µM

COc1ccc(-c2cnc3cnc(-c4ccc(CO)cc4)cn23)cn1
IC50 (PBLUC_HILL_SLOPE 6.35, PBLUC_R_SQUARED 0.601, read-out: LUCIFERASE INFECTION ASSAY - IC50): 6.81 µM
IC90: 9.63 µM

CC(Cn1cccn1)NC(=O)C(=O)Nc1ccccc1SC1CCCC1 (configuration not stated)
IC50 (PBLUC_HILL_SLOPE 6.42, PBLUC_R_SQUARED 0.787, read-out: LUCIFERASE INFECTION ASSAY - IC50): 4.18 µM
IC90: 5.88 µM

Cc1nn(-c2ccccc2)c(C)c1C(=O)NCc1cccc(NC(=O)C(C)C)c1
IC50 (PBLUC_HILL_SLOPE 6.57, PBLUC_R_SQUARED 0.408, read-out: LUCIFERASE INFECTION ASSAY - IC50): 5.51 µM
IC90: 7.7 µM

O=[N+]([O-])c1ccc(Oc2c(Cl)cc(S(=O)(=O)N3CCCCC3)cc2Cl)c(Cl)c1
IC50 (PBLUC_HILL_SLOPE 7.39, PBLUC_R_SQUARED 0.0349, read-out: LUCIFERASE INFECTION ASSAY - IC50): > 7.09 µM
IC90: > 7.09 µM

CC(C)(C)C(=O)Nc1ccc(-c2csc(-n3nccc3C(F)(F)F)n2)cc1
IC50 (PBLUC_HILL_SLOPE 6.43, PBLUC_R_SQUARED 0.126, read-out: LUCIFERASE INFECTION ASSAY - IC50): 8.51 µM
IC90: > 10 µM

CSc1nnnn1-c1cccc(NC(=O)c2cc(-c3cccs3)nc3c2cnn3C(C)C)c1
IC50 (PBLUC_HILL_SLOPE 6.42, PBLUC_R_SQUARED 0.137, read-out: LUCIFERASE INFECTION ASSAY - IC50): > 10 µM
IC90: > 10 µM

N#C/C(=N\Nc1cccc(Cl)c1Cl)C(N)=S
IC50 (PBLUC_HILL_SLOPE 7.41, PBLUC_R_SQUARED 0.441, read-out: LUCIFERASE INFECTION ASSAY - IC50): > 12.1 µM
IC90: > 12.1 µM

CC(C)(C)OC(=O)NC1CCN(C(=O)Nc2cc(Cl)cc(Cl)c2)CC1
IC50 (PBLUC_HILL_SLOPE 7.08, PBLUC_R_SQUARED 0.106, read-out: LUCIFERASE INFECTION ASSAY - IC50): > 8.5 µM
IC90: > 8.5 µM

OC(c1ccc(Cl)cc1)c1nnc(Nc2ccc(Oc3ccccc3)cc2)s1 (configuration not stated)
IC50 (PBLUC_HILL_SLOPE 7.15, PBLUC_R_SQUARED 0.699, read-out: LUCIFERASE INFECTION ASSAY - IC50): 8.48 µM
IC90: > 10 µM

CC(C)(O)C#Cc1ccc(/C=N/Nc2cccc(C(F)(F)F)n2)cc1
IC50 (PBLUC_HILL_SLOPE 6.25, PBLUC_R_SQUARED 0.631, read-out: LUCIFERASE INFECTION ASSAY - IC50): 4.26 µM
IC90: 6.05 µM

CNc1nc2cnc(-c3cncc(OC)c3)cc2n1Cc1ccc(OC)c(OC)c1
IC50 (PBLUC_HILL_SLOPE 6.98, PBLUC_R_SQUARED 0.0782, read-out: LUCIFERASE INFECTION ASSAY - IC50): 8.17 µM
IC90: > 10 µM

Fc1cccc(Cl)c1CSc1nnc(-c2cc(C(F)(F)F)cc(C(F)(F)F)c2)[nH]1
IC50 (PBLUC_HILL_SLOPE 6.81, PBLUC_R_SQUARED 0.556, read-out: LUCIFERASE INFECTION ASSAY - IC50): > 7.24 µM
IC90: > 7.24 µM

Cc1ccc(CN(C)C(=O)C2CCN(c3ncnc4sc(C)c(C)c34)CC2)o1
IC50 (PBLUC_HILL_SLOPE 6.95, PBLUC_R_SQUARED 0.517, read-out: LUCIFERASE INFECTION ASSAY - IC50): 8.99 µM
IC90: > 10 µM

Cc1sc2nc(-c3cccnc3)nc(Nc3ccc(N(C)C)nc3)c2c1C
IC50 (PBLUC_HILL_SLOPE 6.08, PBLUC_R_SQUARED 0.68, read-out: LUCIFERASE INFECTION ASSAY - IC50): 3.9 µM
IC90: 5.59 µM

CC(OC(=O)CCc1nc2cc(Cl)ccc2n(Cc2ccccc2)c1=O)C(=O)N1CCCC1 (configuration not stated)
IC50 (PBLUC_HILL_SLOPE 7.3, PBLUC_R_SQUARED 0.693, read-out: LUCIFERASE INFECTION ASSAY - IC50): 3.7 µM
IC90: 5 µM

CCCS(=O)(=O)/C(C#N)=N/Nc1cc(C(F)(F)F)cc(C(F)(F)F)c1
IC50 (PBLUC_HILL_SLOPE 6.87, PBLUC_R_SQUARED 0.748, read-out: LUCIFERASE INFECTION ASSAY - IC50): 3.21 µM
IC90: 4.41 µM

O=C(Nc1ccccc1)Nc1cncc(C#Cc2ccccc2)c1
IC50 (PBLUC_HILL_SLOPE 6.32, PBLUC_R_SQUARED 0.624, read-out: LUCIFERASE INFECTION ASSAY - IC50): 7.23 µM
IC90: 10.2 µM

Cc1c(-c2ccccc2)oc2c(C(=O)N3CCc4ccccc4C3)cccc2c1=O
IC50 (PBLUC_HILL_SLOPE 6.24, PBLUC_R_SQUARED 0.0221, read-out: LUCIFERASE INFECTION ASSAY - IC50): > 10 µM
IC90: > 10 µM

C#CCOc1ccc(CNCCc2ccccc2)cc1OCC
IC50 (PBLUC_HILL_SLOPE 6.85, PBLUC_R_SQUARED 0.0184, read-out: LUCIFERASE INFECTION ASSAY - IC50): > 9.54 µM
IC90: > 9.54 µM

CCCCOc1ccc(Nc2nc(C(N)c3ccccc3Cl)cs2)nn1 (configuration not stated)
IC50 (PBLUC_HILL_SLOPE 6.47, PBLUC_R_SQUARED 0.485, read-out: LUCIFERASE INFECTION ASSAY - IC50): 6.01 µM
IC90: 8.44 µM

Cc1ccccc1-c1cn2c(-c3ccc(Cl)cc3)cnc2cn1
IC50 (PBLUC_HILL_SLOPE 7.25, PBLUC_R_SQUARED 0.317, read-out: LUCIFERASE INFECTION ASSAY - IC50): 3.83 µM
IC90: 5.18 µM

O=C(Cc1ccsc1)Nc1nc(-c2ccccn2)cs1
IC50 (PBLUC_HILL_SLOPE 6.07, PBLUC_R_SQUARED 0.668, read-out: LUCIFERASE INFECTION ASSAY - IC50): 6.18 µM
IC90: 8.87 µM

COc1ccc(C2CC(c3ccccc3)=Nc3ccccc3S2)cc1 (configuration not stated)
IC50 (PBLUC_HILL_SLOPE 6.73, PBLUC_R_SQUARED 0.0739, read-out: LUCIFERASE INFECTION ASSAY - IC50): > 9.55 µM
IC90: > 9.55 µM

CCCn1c(NC(=O)C2CCCCN2S(=O)(=O)c2ccccc2)nc2ccccc21 (configuration not stated)
IC50 (PBLUC_HILL_SLOPE 7.3, PBLUC_R_SQUARED 0.749, read-out: LUCIFERASE INFECTION ASSAY - IC50): 5.71 µM
IC90: 7.71 µM

CC(Nc1ccc(Cc2nc3ccccc3s2)cc1)C(=O)N1CCNC1=O (configuration not stated)
IC50 (PBLUC_HILL_SLOPE 6.15, PBLUC_R_SQUARED 0.163, read-out: LUCIFERASE INFECTION ASSAY - IC50): 6.81 µM
IC90: 9.74 µM

COc1ccc(-c2cc(-c3cc(C)ccc3O)c3c(n2)-c2ccccc2C3=O)cc1
IC50 (PBLUC_HILL_SLOPE 6.66, 3.32, PBLUC_R_SQUARED 0.385, 0.180, read-out: LUCIFERASE INFECTION ASSAY - IC50): 9.15 µM
IC90: > 10 µM

CC(C)c1ccc(-n2c(SCc3ccccc3Cl)nnc2-c2ccc(C(C)(C)C)cc2)cc1
IC50 (PBLUC_HILL_SLOPE 6.16, PBLUC_R_SQUARED 0.605, read-out: LUCIFERASE INFECTION ASSAY - IC50): 3.2 µM
IC90: 4.57 µM

NNc1nc(C(F)(F)F)nc2c1cnn2-c1ccccc1
IC50 (PBLUC_HILL_SLOPE 6.68, PBLUC_R_SQUARED 0.4, read-out: LUCIFERASE INFECTION ASSAY - IC50): 3.62 µM
IC90: 5.03 µM

Cc1nc(-c2ccccn2)nc(NCCc2ccccc2)c1Cl
IC50 (PBLUC_HILL_SLOPE 7.11, PBLUC_R_SQUARED 0.141, read-out: LUCIFERASE INFECTION ASSAY - IC50): 3.95 µM
IC90: 5.38 µM
